Source: publication PMC7402526, “An in vitro quantitative systems pharmacology approach for deconvolving mechanisms of drug-induced, multilineage cytopenias” (PLoS Computational Biology, 2020)

Legend:
[1] = test system: neutrophils (neutrophil-lin); experiment: MLTA, Neut: concentration-response and QSP model fit; assay type: cell-based, human; conditions: Homo sapiens, Neutrophil, 144 h
Procedure, shortened: (§1)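 Freeze-thawed primary human bone marrow CD34+ cells were grown in SFEM II with a multi-lineage cytokine cocktail, drug added day 0, six days at 37°C. Lineage counts came from 17-parameter flow with TruCount beads, vehicle-normalized per donor, then fitted by an Emax-based QSP model.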

[2] = test system: hematopoietic stem cells (HSCs); experiment: Multi-lineage toxicity assay (MLTA), HSCs: concentration-response and QSP model fit; assay type: cell-based, human
Procedure, shortened: as §1

[3] = test system: total dead cells (totalDeadCells); experiment: MLTA, total dead cells concentration-response; assay type: cell-based; conditions: Homo sapiens, 144 h, 6 days, normalized to vehicle control, read-out: total_dead normalized cell count
Procedure, shortened: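 Freeze-thawed primary human bone marrow CD34+ cells in SFEM II with cytokine cocktail, drug added day 0, 6 days at 37°C, 5% CO2. Live/dead counts by 17-parameter flow cytometry with DAPI exclusion, bead-normalized, volume-corrected to cells/mL. Normalized per donor to mean of six vehicle wells; 2–7 donors pooled.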

[4] = test system: granulocytes (Gran-lin); experiment: MLTA, Gran: concentration-response and QSP model fit; assay type: cell-based, human
Procedure, shortened: (§2)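 Parameters come from fitting an Emax-based QSP model, with L1 regularization and Emax ranging 0–2, to vehicle-normalized, bead-corrected flow cytometry counts. Counts came from human bone marrow CD34+ cells treated from day 0 through a 6-day multi-lineage cytokine culture in SFEM II, using 2–7 donors per drug.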

[5] = test system: monocytes (monocyte-lin); experiment: MLTA, Mono: concentration-response and QSP model fit; assay type: cell-based, human; conditions: Homo sapiens, Monocyte, 144 h
Procedure, shortened: as §2

[6] = test system: human bone marrow-derived CD34+ cells differentiated into multiple hematopoietic lineages; experiment: MLTA, overall effects across hematopoietic lineages; assay type: cell-based; conditions: QSP model fit; EmaxT > 1.0 = cell-killing
Method: A custom optimized cytokine cocktail was developed using commercially available cytokines (Peprotech, New Jersey) to facilitate simultaneous multi-lineage differentiation and self-renewal of freeze-thawed primary human bone marrow-derived CD34+ cells in SFEM II media (cells and media from StemCell Technologies, Vancouver). Cultures were carried out in ultra-low attachment 96-well plates (Corning, New York) with test article added on day 0 and cultured at 37°C, 85% relative humidity, and 5% CO2 for six days before interrogating drug impact via 17-parameter flow cytometry.
The flow cytometry panel used to define hematopoietic subsets was composed of CD34-PECy7, CD90-PECY5, CD38-AF488, CD371-PE, CD45Ra-BV421, CD14-BV605, CD42b-AF647, CD10-PEDazzle594, CD235a-PerCPCy5.5 (BioLegend, California), CD15-BUV395, CD41a-APCH7, CD71-BV786 (BD Biosciences, California), and DAPI for dead cell exclusion (ThermoFisher, California). In short, Day 6 cells were harvested, FcR-blocked (FcR binding inhibitor, ThermoFisher), surface-stained, then analyzed in a buffer containing TruCount Control Beads using a BD LSR Fortessa SORP fitted with a high-throughput sampler (BD Biosciences, California). Data was analyzed in Diva 6.0.2 and exported to CSV where after all cell data was transformed to cell per mL then normalized on a per-donor basis to untreated control wells to determine drug impact.
Donor material was collected and cultured as described above. The number of replicate donor samples per drug ranged from 2–7 and varied per drug (S1 Table). Drug treatment was added at time 0 and cells were maintained in culture for 6 days. Concentrations tested for each drug compound are contained in S1 Table. Concentrations were selected to span a range that is clinically useful. Following treatment, cell populations were measured using flow cytometry. We extracted cell counts from flow cytometry data, normalized to bead counts, and corrected for well volume.
Each well was normalized to the average of six vehicle control wells. For drugs that were tested across multiple runs of the assay, vehicle-normalized donor data were pooled, and we used the average of these pooled data for further modeling. Normalized data used as model inputs are included in S1 Table.
We implemented drug effects using an Emax model for the drug’s effect on each cell type. The 13 maximum effect parameters (EmaxT,C) are unitless and can vary between 0 and 2 and where a subscript, C, represents one of the previously described 13 cell types. We adapted a traditional Emax model using the equations below. We interpreted EmaxT values less than or equal to one as anti-proliferative, and EmaxT values greater than one as indicating a cell-killing mechanism in addition to anti-proliferation. The relationships for these effects are included in the model using the following equations. Eq 2 describes the drug anti-proliferative effect in the net proliferation rate for a given cell type. Eq 3 describes the cell-killing EmaxCK effect.

[7] = test system: monocyte progenitors (monocyte prog); experiment: MLTA, MonoP: concentration-response and QSP model fit; assay type: cell-based, human
Procedure, shortened: as §2

[8] = test system: late erythroid cells (Eryth II); experiment: MLTA, ErythII: concentration-response and QSP model fit; assay type: cell-based, human; conditions: Homo sapiens, 144 h
Procedure, shortened: as §1

[9] = QSP model fit of 6-day MLTA data
[10] = cell-killing component, max(0, EmaxT-1)

EC50 [1, 9]: 25.1 nM
EC50 ([4]; Homo sapiens, 144 h, QSP model fit of 6-day MLTA data): 15.8 nM
EC50 [5, 9]: 30 nM
EC50 ([7]; Homo sapiens, Monocyte, 144 h, QSP model fit of 6-day MLTA data, read-out: EC50MonoP): 24.8 nM
EC50 ([8]; QSP model fit of 6-day MLTA data, read-out: EC50ErythII): 20.2 nM
Structure (SMILES): CC(=O)O[C@H]1C(=O)[C@@]2(C)[C@H]([C@H](OC(=O)c3ccccc3)[C@]3(O)C[C@H](OC(=O)[C@H](O)[C@@H](NC(=O)c4ccccc4)c4ccccc4)C(C)=C1C3(C)C)[C@]1(OC(C)=O)CO[C@@H]1C[C@@H]2O [paclitaxel]
activity at 0.0002 µM ([1]; dose 0.2 nM, 6 days, normalized to vehicle control, read-out: Neut normalized cell count): 88.3%
activity at 0.001 µM ([1]; dose 1 nM, 6 days, normalized to vehicle control, read-out: Neut normalized cell count): 80.1%
activity at 0.005 µM ([1]; dose 5 nM, 6 days, normalized to vehicle control, read-out: Neut normalized cell count): 52.3%
activity at 0.025 µM ([1]; dose 25 nM, 6 days, normalized to vehicle control, read-out: Neut normalized cell count): 0.045%
activity at 0.1 µM ([1]; dose 100 nM, 6 days, normalized to vehicle control, read-out: Neut normalized cell count): 0.0394%
activity at 0.5 µM ([1]; dose 500 nM, 6 days, normalized to vehicle control, read-out: Neut normalized cell count): 0%
activity at 2.5 µM ([1]; dose 2500 nM, 6 days, normalized to vehicle control, read-out: Neut normalized cell count): 0%
Emax ([1]; parameter from QSP model fitting, read-out: Emax_drug_Neut): 21.4%
EC50 ([2]; Homo sapiens, Hematopoietic stem cell, 144 h, QSP model fit of 6-day MLTA data): 62.3 nM
activity at 0.0002 µM ([2]; Homo sapiens, Hematopoietic stem cell, 144 h, dose 0.2 nM, 6 days, normalized to vehicle control, read-out: HSCs normalized cell count): 109%
activity at 0.001 µM ([2]; Homo sapiens, Hematopoietic stem cell, 144 h, dose 1 nM, 6 days, normalized to vehicle control, read-out: HSCs normalized cell count): 87.5%
activity at 0.005 µM ([2]; Homo sapiens, Hematopoietic stem cell, 144 h, dose 5 nM, 6 days, normalized to vehicle control, read-out: HSCs normalized cell count): 118%
activity at 0.025 µM ([2]; Homo sapiens, Hematopoietic stem cell, 144 h, dose 25 nM, 6 days, normalized to vehicle control, read-out: HSCs normalized cell count): 28.1%
activity at 0.1 µM ([2]; Homo sapiens, Hematopoietic stem cell, 144 h, dose 100 nM, 6 days, normalized to vehicle control, read-out: HSCs normalized cell count): 4.8%
activity at 0.5 µM ([2]; Homo sapiens, Hematopoietic stem cell, 144 h, dose 500 nM, 6 days, normalized to vehicle control, read-out: HSCs normalized cell count): 1.08%
activity at 2.5 µM ([2]; Homo sapiens, Hematopoietic stem cell, 144 h, dose 2500 nM, 6 days, normalized to vehicle control, read-out: HSCs normalized cell count): 1.34%
Emax ([2]; Homo sapiens, Hematopoietic stem cell, 144 h, parameter from QSP model fitting, read-out: Emax_drug_HSC): 119%
EmaxCK,HSC [2, 10]: 0.188 day⁻¹
activity at 0.0002 µM ([3]; dose 0.2 nM): 105%
activity at 0.001 µM ([3]; dose 1 nM): 113%
activity at 0.005 µM ([3]; dose 5 nM): 115%
activity at 0.025 µM ([3]; dose 25 nM): 75.5%
activity at 0.1 µM ([3]; dose 100 nM): 47.5%
activity at 0.5 µM ([3]; dose 500 nM): 40.7%
activity at 2.5 µM ([3]; dose 2500 nM): 46.1%
activity at 0.0002 µM ([4]; Homo sapiens, 144 h, dose 0.2 nM, 6 days, normalized to vehicle control, read-out: Gran normalized cell count): 104%
activity at 0.001 µM ([4]; Homo sapiens, 144 h, dose 1 nM, 6 days, normalized to vehicle control, read-out: Gran normalized cell count): 122%
activity at 0.005 µM ([4]; Homo sapiens, 144 h, dose 5 nM, 6 days, normalized to vehicle control, read-out: Gran normalized cell count): 92.8%
activity at 0.025 µM ([4]; Homo sapiens, 144 h, dose 25 nM, 6 days, normalized to vehicle control, read-out: Gran normalized cell count): 0.105%
activity at 0.1 µM ([4]; Homo sapiens, 144 h, dose 100 nM, 6 days, normalized to vehicle control, read-out: Gran normalized cell count): 0.0692%
activity at 0.5 µM ([4]; Homo sapiens, 144 h, dose 500 nM, 6 days, normalized to vehicle control, read-out: Gran normalized cell count): 0.0215%
activity at 2.5 µM ([4]; Homo sapiens, 144 h, dose 2500 nM, 6 days, normalized to vehicle control, read-out: Gran normalized cell count): 0.0279%
Emax ([4]; Homo sapiens, 144 h, parameter from QSP model fitting, read-out: Emax_drug_Gran): 236%
EmaxCK,Gran [4, 10]: 1.360 day⁻¹
activity at 0.0002 µM ([5]; dose 0.2 nM, 6 days, normalized to vehicle control, read-out: Mon normalized cell count): 90.9%
activity at 0.001 µM ([5]; dose 1 nM, 6 days, normalized to vehicle control, read-out: Mon normalized cell count): 93.8%
activity at 0.005 µM ([5]; dose 5 nM, 6 days, normalized to vehicle control, read-out: Mon normalized cell count): 77%
activity at 0.025 µM ([5]; dose 25 nM, 6 days, normalized to vehicle control, read-out: Mon normalized cell count): 0.638%
activity at 0.1 µM ([5]; dose 100 nM, 6 days, normalized to vehicle control, read-out: Mon normalized cell count): 0.419%
activity at 0.5 µM ([5]; dose 500 nM, 6 days, normalized to vehicle control, read-out: Mon normalized cell count): 1.04%
activity at 2.5 µM ([5]; dose 2500 nM, 6 days, normalized to vehicle control, read-out: Mon normalized cell count): 0.347%
Emax ([5]; parameter from QSP model fitting, read-out: Emax_drug_Mono): 25.8%
EmaxT effects across cell types (overall statement) [6]: > 1.0
activity at 0.0002 µM ([7]; Homo sapiens, Monocyte, 144 h, dose 0.2 nM, 6 days, normalized to vehicle control, read-out: MonoPs normalized cell count): 102%
activity at 0.001 µM ([7]; Homo sapiens, Monocyte, 144 h, dose 1 nM, 6 days, normalized to vehicle control, read-out: MonoPs normalized cell count): 112%
activity at 0.005 µM ([7]; Homo sapiens, Monocyte, 144 h, dose 5 nM, 6 days, normalized to vehicle control, read-out: MonoPs normalized cell count): 89%
activity at 0.025 µM ([7]; Homo sapiens, Monocyte, 144 h, dose 25 nM, 6 days, normalized to vehicle control, read-out: MonoPs normalized cell count): 0.562%
activity at 0.1 µM ([7]; Homo sapiens, Monocyte, 144 h, dose 100 nM, 6 days, normalized to vehicle control, read-out: MonoPs normalized cell count): 0.118%
activity at 0.5 µM ([7]; Homo sapiens, Monocyte, 144 h, dose 500 nM, 6 days, normalized to vehicle control, read-out: MonoPs normalized cell count): 0.188%
activity at 2.5 µM ([7]; Homo sapiens, Monocyte, 144 h, dose 2500 nM, 6 days, normalized to vehicle control, read-out: MonoPs normalized cell count): 0.286%
Emax ([7]; Homo sapiens, Monocyte, 144 h, parameter from QSP model fitting, read-out: Emax_drug_MonoP): 156%
EmaxCK,MonoP [7, 10]: 0.556 day⁻¹
activity at 0.0002 µM ([8]; dose 0.2 nM, 6 days, normalized to vehicle control, read-out: ErythII normalized cell count): 90.9%
activity at 0.001 µM ([8]; dose 1 nM, 6 days, normalized to vehicle control, read-out: ErythII normalized cell count): 107%
activity at 0.005 µM ([8]; dose 5 nM, 6 days, normalized to vehicle control, read-out: ErythII normalized cell count): 56.5%
activity at 0.025 µM ([8]; dose 25 nM, 6 days, normalized to vehicle control, read-out: ErythII normalized cell count): 0.128%
activity at 0.1 µM ([8]; dose 100 nM, 6 days, normalized to vehicle control, read-out: ErythII normalized cell count): 0.0395%
activity at 0.5 µM ([8]; dose 500 nM, 6 days, normalized to vehicle control, read-out: ErythII normalized cell count): 0.0174%
activity at 2.5 µM ([8]; dose 2500 nM, 6 days, normalized to vehicle control, read-out: ErythII normalized cell count): 0.00196%
Emax ([8]; parameter from QSP model fitting, read-out: Emax_drug_ErythroidII): 7.1%
